Data from US9770026B2, “Substituted pyrimidine compound and uses thereof” (Shenyang Sinochem Agrochemicals R&D Co., Ltd., priority 2012, dated 2017).

Tests used:
Diamond back moth = test: insecticidal activity against diamond back moth, airbrush spray; type: in vivo; conditions: for pest or weed control at 10 µg/mL / pest or weed control at 100 µg/mL / pest or weed control at 600 µg/mL / pest or weed control at 600 ppm: 72 h; for control (test results against diamond back moth) / pest or weed control at 600 ppm: mortality after 72 hrs; for pest or weed control at 600 ppm: read-out: control (test results against diamond back moth)
How it was run: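 Airbrush leaf-disc spray test: both faces of 2 cm cabbage discs received 0.5 ml of test solution at 0.7 kg/cm^2. Solutions were made in acetone:methanol (1:1) and brought to concentration with 0.1% Tween 80 in water. Ten second-instar larvae per disc, triplicates, were held at 25° C and 60˜70% R.H., with mortality recorded at 72 hrs.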

armyworm = test: bioactivity test against armyworm, airbrush spray; type: in vivo; conditions: for pest or weed control at 600 µg/mL: 600 mg/L; for pest or weed control at 600 ppm / control (test results against armyworm): mortality after 72 h
[1] = system: Green peach aphids (Myzus Persicae Sulzer); test: bioactivity test against green peach aphid, airbrush foliar spray; type: in vivo; conditions: for pest or weed control at 10 µg/mL: 10 mg/L; for pest or weed control at 100 µg/mL: 100 mg/L; for pest or weed control at 600 µg/mL: 600 mg/L; for pest or weed control at 2.5 µg/mL: 2.5 mg/L; for pest or weed control at 5 µg/mL: 5 mg/L
How it was run: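 Death rate was scored at 48 hrs, held at 25±1 C and 60±5% RH, following airbrush foliar spray (0.5 mL, 10 psi) onto cabbage leaf discs bearing about 15-30 aphids. Test solutions: compound dissolved in 1:1 acetone:methanol, brought to concentration with 0.1% tween 80 water.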

carmine spider mite = test: bioactivity test against carmine spider mite, airbrush spray; type: in vivo
How it was run: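 Broadbean seedlings infested with adult mites were sprayed with compound (acetone/methanol stock diluted in 0.1% Tween 80 water) by airbrush at 0.7 kg/cm^2, 0.5 ml. Three replicates were run. Mortality was scored after 72 hrs.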

corn rust = test: protectant activity in vivo against corn rust; conditions: for pest or weed control at 6.25 µg/mL: read-out: control effect against corn rust (%), 6.25 mg/L; for pest or weed control at 6.25 µg/mL / pest or weed control at 25 µg/mL / pest or weed control at 100 µg/mL / pest or weed control at 400 µg/mL: protectant activity; for pest or weed control at 25 µg/mL: read-out: control effect against corn rust (%), 25 mg/L; for pest or weed control at 100 µg/mL: read-out: control effect against corn rust (%), 100 mg/L; for pest or weed control at 400 µg/mL: read-out: control effect against corn rust (%), 400 mg/L; for pest or weed control at 100 ppm: read-out: protectant activity against corn rust in vivo, 100 ppm
wheat powdery mildew = test: protectant activity in vivo against wheat powdery mildew; conditions: for pest or weed control at 6.25 µg/mL: read-out: control effect against wheat powdery mildew (%), 6.25 mg/L; for pest or weed control at 6.25 µg/mL / pest or weed control at 25 µg/mL / pest or weed control at 100 µg/mL / pest or weed control at 400 µg/mL: protectant activity; for pest or weed control at 25 µg/mL: read-out: control effect against wheat powdery mildew (%), 25 mg/L; for pest or weed control at 100 µg/mL: read-out: control effect against wheat powdery mildew (%), 100 mg/L; for pest or weed control at 400 µg/mL: read-out: control effect against wheat powdery mildew (%), 400 mg/L; for pest or weed control at 100 ppm: read-out: protectant activity against wheat powdery mildew in vivo, 100 ppm
[2] = 72 h, read-out: Insecticidal activity against armyworm (%)
[3] = Myzus persicae, foliar, 48 h, contrastive test, read-out: Insecticidal activity against peach aphid (%)
[4] = Tetranychus cinnabarinus, 72 h, 600 mg/L, contrastive test, read-out: Insecticidal activity against carmine spider mite (% )
[5] = 10 ppm, death rate after 48 hrs
[6] = 100 ppm, death rate after 48 hrs
[7] = 600 ppm, death rate after 48 hrs
[8] = 100 ppm, mortality after 72 hrs
[9] = 600 ppm, mortality after 72 hrs
[10] = Myzus persicae, foliar, 48 h, 10 ppm, death rate after 48 hrs
[11] = Tetranychus cinnabarinus, 72 h, 100 mg/L, contrastive test, read-out: Insecticidal activity against carmine spider mite (% )
[12] = Tetranychus cinnabarinus, 72 h, 600 ppm, mortality after 72 hrs

## CCc1ncnc(NCc2ccc(Oc3nc(Cl)c(Cl)cc3Cl)cc2)c1Cl [CK36, reference compound]
Diamond back moth; 10 mg/L
  pest or weed control at 10 µg/mL: 0%
Diamond back moth; 100 mg/L
  pest or weed control at 100 µg/mL: 0%
Diamond back moth; 600 mg/L
  pest or weed control at 600 µg/mL: 20%
armyworm; [2]
  pest or weed control at 600 µg/mL: 0%
[1]; [3]
  pest or weed control at 10 µg/mL: 0%
  pest or weed control at 100 µg/mL: 14%
  pest or weed control at 600 µg/mL: 90%
Carmine spider mite; [4]
  pest or weed control at 600 µg/mL: 0%
Corn rust; Zea mays, 168 h
  pest or weed control at 6.25 µg/mL: 0%
  pest or weed control at 25 µg/mL: 40%
  pest or weed control at 100 µg/mL: 60%
  pest or weed control at 400 µg/mL: 100%
Wheat powdery mildew; Triticum aestivum, 168 h
  pest or weed control at 6.25 µg/mL: 0%
  pest or weed control at 25 µg/mL: 60%
  pest or weed control at 100 µg/mL: 80%
  pest or weed control at 400 µg/mL: 100%

## Cc1ncnc(NCCc2ccc(Oc3ccc(C(F)(F)F)cn3)cc2)c1Cl [Compound I-6731]
Diamond back moth; 600 ppm
  control (test results against diamond back moth): 100%
armyworm; 72 h, 600 ppm
  pest or weed control at 600 ppm: 100%
[1]; 1.25 mg/L, contrastive test
  Insecticidal activity against peach aphid (%): 60%
[1]; 5 ppm, death rate after 48 hrs
  control (test results against green peach aphid): 100%
[1]; [5]
  control (test results against green peach aphid): 100%
[1]; [6]
  control (test results against green peach aphid): 100%
[1]; [7]
  control (test results against green peach aphid): 100%
[1]; [3]
  pest or weed control at 2.5 µg/mL: 93%
  pest or weed control at 5 µg/mL: 100%
  pest or weed control at 10 µg/mL: 100%
  pest or weed control at 100 µg/mL: 100%
  pest or weed control at 600 µg/mL: 100%
Carmine spider mite; [8]
  control against carmine spider mite: 100%
Carmine spider mite; [9]
  control against carmine spider mite: 100%
Corn rust; 100 ppm
  protectant activity against corn rust in vivo: 100%
Corn rust; 400 ppm
  protectant activity against corn rust in vivo: 100%
Wheat powdery mildew; 400 ppm
  protectant activity against wheat powdery mildew in vivo: 100%

## Cc1ncnc(NCCc2ccc(Oc3ccc(C(F)(F)F)cn3)cc2)c1Cl [Compound I-6729]
Diamond back moth; 600 ppm
  pest or weed control at 600 ppm: 100%
armyworm; 600 ppm
  control (test results against armyworm): 100%
[1]; [6]
  control (test results against green peach aphid): 100%
[1]; [7]
  control (test results against green peach aphid): 100%
[1]; [10]
  pest or weed control at 10 ppm: 100%
Carmine spider mite; 2.5 mg/L
  Insecticidal activity against carmine spider mite (% ): 64%
Carmine spider mite; 5 mg/L
  Insecticidal activity against carmine spider mite (% ): 78%
Carmine spider mite; [8]
  control against carmine spider mite: 100%
Carmine spider mite; Tetranychus cinnabarinus, 72 h, 10 mg/L, contrastive test, read-out: Insecticidal activity against carmine spider mite (% )
  pest or weed control at 10 µg/mL: 87%
Carmine spider mite; [11]
  pest or weed control at 100 µg/mL: 100%
Carmine spider mite; [4]
  pest or weed control at 600 µg/mL: 100%
Carmine spider mite; [12]
  pest or weed control at 600 ppm: 100%
Corn rust; 25 ppm
  protectant activity against corn rust in vivo: 100%
Corn rust; 400 ppm
  protectant activity against corn rust in vivo: 100%
Corn rust; Zea mays, 168 h
  pest or weed control at 100 ppm: 100%
Wheat powdery mildew; 400 ppm
  protectant activity against wheat powdery mildew in vivo: 100%
Wheat powdery mildew; Triticum aestivum, 168 h
  pest or weed control at 100 ppm: 100%

## FC(F)(F)c1ccc(Oc2ccc(CCNc3ncnc4ccccc34)cc2)nc1 [CK12, reference compound]
Diamond back moth; 10 mg/L
  pest or weed control at 10 µg/mL: 0%
Diamond back moth; 100 mg/L
  pest or weed control at 100 µg/mL: 35%
Diamond back moth; 600 mg/L
  pest or weed control at 600 µg/mL: 100%
armyworm; 72 h, 10 mg/L, read-out: Insecticidal activity against armyworm (%)
  pest or weed control at 10 µg/mL: 0%
armyworm; 72 h, 100 mg/L, read-out: Insecticidal activity against armyworm (%)
  pest or weed control at 100 µg/mL: 20%
armyworm; [2]
  pest or weed control at 600 µg/mL: 86%
[1]; [3]
  pest or weed control at 10 µg/mL: 73%
  pest or weed control at 100 µg/mL: 100%
  pest or weed control at 600 µg/mL: 100%
Carmine spider mite; [11]
  pest or weed control at 100 µg/mL: 41%
Carmine spider mite; [4]
  pest or weed control at 600 µg/mL: 100%
Corn rust; Zea mays, 168 h
  pest or weed control at 6.25 µg/mL: 75%
  pest or weed control at 25 µg/mL: 85%
  pest or weed control at 100 µg/mL: 100%
  pest or weed control at 400 µg/mL: 100%
Wheat powdery mildew; Triticum aestivum, 168 h
  pest or weed control at 6.25 µg/mL: 0%
  pest or weed control at 25 µg/mL: 0%
  pest or weed control at 100 µg/mL: 30%
  pest or weed control at 400 µg/mL: 80%

## Cc1ncnc(NCCc2ccc(Oc3ccc(C(F)(F)F)cn3)cc2)c1Cl [Compound I-6733]
Diamond back moth; 10 mg/L
  Insecticidal activity against diamond back moth (%): 40%
Diamond back moth; 100 mg/L
  Insecticidal activity against diamond back moth (%): 68%
Diamond back moth; 600 mg/L
  Insecticidal activity against diamond back moth (%): 100%
Diamond back moth; 600 ppm
  control (test results against diamond back moth): 100%
armyworm; 600 ppm
  control (test results against armyworm): 100%
[1]; [5]
  control (test results against green peach aphid): 100%
[1]; [6]
  control (test results against green peach aphid): 100%
[1]; [7]
  control (test results against green peach aphid): 100%
Carmine spider mite; [8]
  control against carmine spider mite: 100%
Carmine spider mite; [9]
  control against carmine spider mite: 100%
Corn rust; 100 ppm
  protectant activity against corn rust in vivo: 100%
Corn rust; 400 ppm
  protectant activity against corn rust in vivo: 100%
Wheat powdery mildew; 400 ppm
  protectant activity against wheat powdery mildew in vivo: 100%

## CCc1ncnc(NCCc2ccc(Oc3ccc(C(F)(F)F)cn3)cc2)c1Cl.Cl [Compound I-6739]
Diamond back moth; 100 ppm
  control (test results against diamond back moth): 100%
Diamond back moth; 600 ppm
  pest or weed control at 600 ppm: 100%
armyworm; 100 ppm
  control (test results against armyworm): 100%
armyworm; 72 h, 600 ppm
  pest or weed control at 600 ppm: 100%
[1]; 2.5 ppm, death rate after 48 hrs
  control (test results against green peach aphid): 100%
[1]; 5 ppm, death rate after 48 hrs
  control (test results against green peach aphid): 100%
[1]; Myzus persicae, foliar, 48 h, 1.25 mg/L, contrastive test, read-out: Insecticidal activity against peach aphid (%)
  pest or weed control at 1.25 µg/mL: 100%
[1]; [3]
  pest or weed control at 2.5 µg/mL: 100%
  pest or weed control at 5 µg/mL: 100%
  pest or weed control at 10 µg/mL: 100%
  pest or weed control at 100 µg/mL: 100%
  pest or weed control at 600 µg/mL: 100%
[1]; [10]
  pest or weed control at 10 ppm: 100%
[1]; Myzus persicae, foliar, 48 h, 100 ppm, death rate after 48 hrs
  pest or weed control at 100 ppm: 100%
[1]; Myzus persicae, foliar, 48 h, 600 ppm, death rate after 48 hrs
  pest or weed control at 600 ppm: 100%
Carmine spider mite; 2.5 mg/L
  Insecticidal activity against carmine spider mite (% ): 76%
Carmine spider mite; 5 mg/L
  Insecticidal activity against carmine spider mite (% ): 93%
Carmine spider mite; 10 mg/L, contrastive test
  Insecticidal activity against carmine spider mite (% ): 100%
Carmine spider mite; 100 mg/L, contrastive test
  Insecticidal activity against carmine spider mite (% ): 100%
Carmine spider mite; 600 mg/L, contrastive test
  Insecticidal activity against carmine spider mite (% ): 100%
Carmine spider mite; 10 ppm, mortality after 72 hrs
  control against carmine spider mite: 100%
Carmine spider mite; Tetranychus cinnabarinus, 72 h, 100 ppm, mortality after 72 hrs
  pest or weed control at 100 ppm: 100%
Carmine spider mite; [12]
  pest or weed control at 600 ppm: 100%
Corn rust; Zea mays, 168 h
  pest or weed control at 100 ppm: 100%
Corn rust; Zea mays, 168 h, read-out: protectant activity against corn rust in vivo, 400 ppm
  pest or weed control at 400 ppm: 100%
Wheat powdery mildew; 25 ppm
  protectant activity against wheat powdery mildew in vivo: 100%
Wheat powdery mildew; Triticum aestivum, 168 h, read-out: protectant activity against wheat powdery mildew in vivo, 6.25 ppm
  pest or weed control at 6.25 ppm: 80 to 99%
Wheat powdery mildew; Triticum aestivum, 168 h
  pest or weed control at 100 ppm: 100%
Wheat powdery mildew; Triticum aestivum, 168 h, read-out: protectant activity against wheat powdery mildew in vivo, 400 ppm
  pest or weed control at 400 ppm: 100%
